For one assay, the system named is Mus musculus. The assay is described as follows: Compound was tested in vivo for anticonvulsant activity in DBA/2 mice by i.p. administration. Format: functional. The following applies: ip.
A short description of assay [1]: Effect on low-threshold (T-type) Calcium current in primary cultured rat cerebrocortical neurons. It counts as functional.
Assay [2] addresses Sodium channel alpha subunits; brain (Types I, II, III) (Rattus norvegicus, UniProt P04775+P04774+P08104). The assay is described as follows: Inhibition of veratridine-induced depolarization in rat cerebrocortical synaptosomes using the voltage sensitive fluorescent dye Rhodamine 6G. It counts as functional, subcellular.
The target in another assay is D(2) dopamine receptor (Rattus norvegicus, UniProt P61169). The assay is described as follows: Inhibition of [3H]raclopride binding to Dopamine receptor D2 of rat striatum membranes. Format: cell membranes, Membrane.

Where only a bound is given, the exact number is not on record here.

D(2) dopamine receptor, sequence (P61169 whole entry): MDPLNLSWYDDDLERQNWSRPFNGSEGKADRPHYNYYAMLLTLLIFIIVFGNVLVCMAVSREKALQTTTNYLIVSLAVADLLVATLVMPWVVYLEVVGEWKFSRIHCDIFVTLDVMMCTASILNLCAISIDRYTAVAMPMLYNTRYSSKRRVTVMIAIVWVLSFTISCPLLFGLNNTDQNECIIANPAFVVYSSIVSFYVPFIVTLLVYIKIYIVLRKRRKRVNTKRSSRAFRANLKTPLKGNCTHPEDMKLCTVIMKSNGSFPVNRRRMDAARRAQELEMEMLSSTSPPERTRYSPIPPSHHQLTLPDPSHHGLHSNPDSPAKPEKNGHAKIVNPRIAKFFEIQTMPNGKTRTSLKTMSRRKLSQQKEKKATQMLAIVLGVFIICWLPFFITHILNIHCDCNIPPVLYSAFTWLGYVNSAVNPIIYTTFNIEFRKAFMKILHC

Turning to `C(=C\c1ccccc1)/CN1CCC(c2ccc(Oc3ccccc3)cc2)CC1.Cl`, in the assay on Mus musculus, it took a dose of 4.2 mg/kg to reach the 50% effect level (ED50). The IC50 – broadly, the point on the concentration scale where inhibition reaches its midpoint – in assay [1] was found to be 800 nM; in assay [2] it was 320 nM.

Consider `Cl.O[C@H](COc1ccccc1)CN1CCC(c2ccc(Oc3ccccc3)cc2)CC1`, for which the IC50 at D(2) dopamine receptor was found to be 4340 nM; in assay [1], 2000 nM; in assay [2] it was 130 nM. Also, the ED50 (in general, the dose at which the effect has come halfway, by size or by number of responders) in the assay with Mus musculus was 2.5 mg/kg.

`Fc1ccc(C(c2ccc(F)cc2)N2CCN(C/C=C/c3ccccc3)CC2)cc1` [FLUNARIZINE]: the ED50 in the assay on Mus musculus was determined as 6.4 mg/kg. Also, the IC50 in assay [1] is 2200 nM.

Regarding `Cl.OC(COc1ccccc1)CN1CCC(c2ccc(Oc3ccccc3)cc2)CC1` (centres undefined), the IC50 at D(2) dopamine receptor was 4640 nM; in assay [1], 3500 nM; in assay [2], 220 nM. Moreover, the ED50 in the assay with Mus musculus was 5 mg/kg.

Regarding `Cl.OC(COc1ccccc1)CN1CCC(c2ccc(Cc3ccc(F)cc3)cc2)CC1` (centres undefined), the values for the IC50 (at D(2) dopamine receptor; in assay [1]; in assay [2]) were over 10000 nM, 800 nM and 360 nM, respectively. For the same molecule, the 50% effect level in the assay with Mus musculus (ED50) was put at a dose of 7.5 mg/kg.

As for `Cl.O[C@@H](COc1ccccc1)CN1CCC(c2ccc(Oc3ccccc3)cc2)CC1`, the IC50 was found to be 4080 nM at D(2) dopamine receptor, 2700 nM in assay [1] and 120 nM in assay [2]. Besides, the ED50 in the assay with Mus musculus amounted to 2.5 mg/kg.

Molecule `Cl.Fc1ccc(Cc2ccc(C3CCN(C/C=C/c4ccccc4)CC3)cc2)cc1` displayed an ED50 with Mus musculus of 2.2 mg/kg. Further, the half-inhibitory concentration (IC50) in assay [1] was determined as 600 nM; in assay [2] it was 190 nM.

For the origin of these results see ChEMBL document CHEMBL1131853 (Bioorg Med Chem Lett, 1999).
